Assay results: patent publication US7709523B2, “Alpha-aminoamide derivatives useful as antimigraine agents” (Newron Pharmaceuticals SpA, priority 2003, dated 2010)

System: CBF response evoked by electrical stimulation of the left ophthalmic branch of the trigeminal ganglion
Assay: Inhibition of cerebral blood flow (CBF) increase evoked by electrical stimulation of the trigeminal ganglion in anesthetized rats
Format: in vivo, Male Wistar rats
Conditions: rat, i.v.; for % Inhibition of the CBF response: mean±S.E. of 4/6 rats, versus vehicle
Experimental: Male Wistar rats (250-350 g) were anesthetized with sodium pentobarbital (50 mg/kg i.p.) dissolved in saline. The trachea and left femoral artery were cannulated for artificial ventilation (55 strokes/min) and for measurement of mean blood pressure (MBP) respectively. The femoral vein was cannulated for the intravenous administration of test agents. Body temperature was maintained at 37-38° C. by automatic control of a heating pad. Animals were placed in a stereotaxic frame and a longitudinal incision was made in the scalp. A burr hole was drilled in the skull and a stainless steel bipolar electrode (Plastic One MS 306) was lowered into left ophthalmic branch of the trigeminal ganglion (3.8 mm […] to bregma, 2.5 mm lateral from the midline and 9.5 mm below the dural surface) and secured with dental cement. Correct placement of the electrode was confirmed by a brief electrical stimulation, which cause movement of the jaw due to activation of the trigeminal fiber. Following removal of the brain, the correct position of the electrode into the fiber, was visually checked at the end of each experiment. A second hole was drilled ipsilateral of the electrode (1.5 mm rostral to bregma, and 1.5 mm lateral from the sagittal suture) and a needle probe (tip diameter 0.8 mm) of a laser doppler flowmeter was fixed pointing with its tip onto a branch of the middle cerebral artery (MCA) and Cerebral Blood Flow (CBF) change recorded on-line by the PeriFlux 4001 Laser Doppler system. Artefacts of the laser Doppler reading during electrical stimulation of the trigeminal ganglion due to muscular movements were prevented by a bolus of i.v. injection of the neuromuscular blocker pancuronium bromide (0.6 mg/kg i.v.). Anesthesia and neuromuscular blockade were maintained all over the experiment with an infusion of sodium pentobarbital and pancuronium (12.5 mg/kg/h+2.4 mg/kg/h, respectively). At the end of the surgery, a pause of thirty minutes was taken in order to stabilize the measured parameters. Rest CBF was increased by electrical stimulation with rectangular pulse of 0.5 msec length, 1-10 Hz, 0.5-1 mA for periods of 30 seconds. After two averaged pre-drug stimulations, vehicle or drugs were administered. The α-aminoamide compounds NW-1015, NW-1029, NW-1039, representative of the invention, and the comparative 2-(4-(2-fluorobenzyloxy)benzylamino)-2-methyl-propanamide (internal code and hereinafter NW1050), 2-(4-(4-fluorobenzyloxy)benzylamino)-2-methyl-propanamide (internal code and hereinafter NW1055, also one of the compounds tested in WO99/26614), 4-(4′-fluorophenoxy)benzaldheyde semicarbazone (hereinafter Co102862, tested in WO00/61188) and vehicle, were administered intravenously after second basal stimulation registering the responses to evoked flow by electrical stimulation at 5, 15, 30 and 60 min after treatment. NW-1015, was administered at the doses of 1, 2 and 5 mg/kg; NW-1029 was administered at the doses of 5 and 10 mg/kg and NW-1039 at the doses of 2 and 5 mg/kg whereas NW-1050, NW-1055 and Co102862 were all administered at the dose of 20 mg/kg. The responses obtained after drug administration were compared to the vehicle group, and were reported as a percentage of the inhibition of the evoked CBF. Data were compared by analysis of covariance (ANCOVA) followed by Dunnet's test. The antimigraine effect of the tested compounds was observed and measured as the percentage of the inhibition after i.v. administration of the above mentioned representative compounds of the CBF evoked in control condition. The data reported in table 1 below show the inhibitory activity of the tested compounds on the CBF response evoked by electrical stimulation of the left ophthalmic branch of the trigeminal ganglion. Results (mean±S.E. of 4/6 rats per group) are expressed as percent of the inhibition on evoked CBF response versus the vehicle.

[1] = dose 20 mg/kg, 5 min after administration
[2] = dose 20 mg/kg, 15 min after administration
[3] = dose 20 mg/kg, 30 min after administration
[4] = dose 20 mg/kg, 60 min after administration
[5] = at the doses tested (1-10 mg/kg), up to 60 min
[6] = dose 5 mg/kg, 5 min after administration
[7] = dose 5 mg/kg, 15 min after administration
[8] = dose 5 mg/kg, 30 min after administration
[9] = dose 5 mg/kg, 60 min after administration
[10] = dose 2 mg/kg, 5 min after administration
[11] = dose 2 mg/kg, 15 min after administration
[12] = dose 2 mg/kg, 30 min after administration
[13] = dose 2 mg/kg, 60 min after administration

SMILES	Effect on the evoked CBF compared to the vehicle group (in words) (20 mg/kg)	% Inhibition of the CBF response [1] [%]	% Inhibition of the CBF response [2] [%]	% Inhibition of the CBF response [3] [%]	% Inhibition of the CBF response [4] [%]	Effect on the evoked CBF compared to the vehicle group (in words) [5]	% Inhibition of the CBF response [6] [%]	% Inhibition of the CBF response [7] [%]	% Inhibition of the CBF response [8] [%]	% Inhibition of the CBF response [9] [%]	% Inhibition of the CBF response [10] [%]	% Inhibition of the CBF response [11] [%]	% Inhibition of the CBF response [12] [%]	% Inhibition of the CBF response [13] [%]	also measured
NC(=O)NN=Cc1ccc(Oc2ccc(F)cc2)cc1 [Co102862, 4-(4′-fluorophenoxy)benzaldheyde semicarbazone, reference compound]	completely inactive	0.9 ± 0.1	1.1 ± 0.3	1.2 ± 0.2	0.7 ± 0.1	–	–	–	–	–	–	–	–	–	–
C[C@H](NCc1ccc(OCc2ccccc2F)cc1)C(N)=O [NW-1029, (S)-(+)-2-[4-(2-fluorobenzyloxy)benzylamino]-propanamide]	–	–	–	–	–	reduced the evoked CBF compared to the vehicle up to 60 min post administration	15.5 ± 3.7	20.8 ± 3.5	27.8 ± 3.9	30.6 ± 2.8	–	–	–	–	% Inhibition of the CBF response (dose 10 mg/kg, 5 min after administration): 23.9 ± 3.9%; % Inhibition of the CBF response (dose 10 mg/kg, 15 min after administration): 34.9 ± 8.2 %; % Inhibition of the CBF response (dose 10 mg/kg, 30 min after administration): 35.3 ± 2.6 %; % Inhibition of the CBF response (dose 10 mg/kg, 60 min after administration): 35.7 ± 3.9 %
C[C@H](NCc1ccc(OCc2cccc(Cl)c2)cc1)C(N)=O [NW-1039, (S)-(+)-2-[4-(3-chlorobenzyloxy)benzylamino]-propanamide]	–	–	–	–	–	produced a decrease of the evoked CBF response compared to the vehicle group	45.0 ± 6.3	41.7 ± 1.8	38.1 ± 2.6	20.9 ± 9.4	24.2 ± 6.2	31.3 ± 6.2	32.1 ± 8.1	36.2 ± 9.1	–
CC(C)(NCc1ccc(OCc2ccccc2F)cc1)C(N)=O [NW-1050, 2-(4-(2-fluorobenzyloxy)benzylamino)-2-methyl-propanamide, reference compound]	completely inactive	1.2 ± 0.3	1.8 ± 0.6	1.7 ± 0.8	0.9 ± 0.1	–	–	–	–	–	–	–	–	–	–
CC(C)(NCc1ccc(OCc2ccc(F)cc2)cc1)C(N)=O [NW-1055, 2-(4-(4-fluorobenzyloxy)benzylamino)-2-methyl-propanamide, reference compound]	light inhibition of the evoked CBF, which however did not reach a statistically significant difference	6.9 ± 4.2	3.4 ± 3.2	11.3 ± 2.0	14.0 ± 4.0	–	–	–	–	–	–	–	–	–	–
C[C@H](NCc1ccc(OCc2cccc(F)c2)cc1)C(N)=O [NW-1015, (S)-(+)-2-[4-(3-fluorobenzyloxy)benzylamino]-propanamide]	–	–	–	–	–	long lasting i.v. activity reducing the evoked CBF up to 60 min after administration	25.2 ± 2.6	35.5 ± 6.5	34.7 ± 1.9	27.1 ± 3.6	15.0 ± 1.8	22.0 ± 3.8	20.6 ± 6.2	4.0 ± 6.3	% Inhibition of the CBF response (dose 1 mg/kg, 5 min after administration): 25.6 ± 2.9%; % Inhibition of the CBF response (dose 1 mg/kg, 15 min after administration): 25.8 ± 2.7%; % Inhibition of the CBF response (dose 1 mg/kg, 30 min after administration): 36.6 ± 4.7 %; % Inhibition of the CBF response (dose 1 mg/kg, 60 min after administration): 15.7 ± 9.8%
